Assays:
[1] = system: green foxtail; experiment: Test E green foxtail; type: in vivo, Setaria viridis; conditions: Preemergence
[2] = system: tall mallow; experiment: Test D tall mallow; type: in vivo, Malva sylvestris; conditions: Preemergence, 0 to 100 scale, 0 no injury, 100 complete control
Summary of the method: (§1)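 Seeds were sown in greenhouse pots, one species per pot or compartment. Compounds were in a non-phytotoxic solvent mixture with surfactant; preemergence applications went on the sandy loam surface within one day of planting. Injury was rated visually after 14 to 21 days, 0 (none) to 100 (complete control).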

[3] = system: bermuda-grass; experiment: Test D bermudagrass; type: in vivo, Cynodon dactylon; conditions: Preemergence, 0 to 100 scale, 0 no injury, 100 complete control
Summary of the method: as §1

[4] = system: winter wheat; experiment: Test E winter wheat; type: in vivo, Triticum aestivum; conditions: Preemergence
[5] = system: common pursiane; experiment: Test D common purslane; type: in vivo, Portulaca oleracea; conditions: Preemergence, 0 to 100 scale, 0 no injury, 100 complete control
Summary of the method: as §1

[6] = system: soybean; experiment: Test B pre/postemergence soybean; type: in vivo, Glycine max
Summary of the method: (§2)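 Herbicidal effect was estimated by eye on a ten-point control scale after plants spent twelve to sixteen days in a greenhouse following soil or foliar treatment. Foliar sprays targeted plants at one to four leaves; all doses were formulated in a non-phytotoxic solvent with surfactant.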

[7] = system: Italian ryegrass; experiment: Test E Italian ryegrass; type: in vivo, Lolium multiflorum; conditions: Preemergence
[8] = system: guineagrass; experiment: Test D guineagrass; type: in vivo, Panicum maximum; conditions: Preemergence, 0 to 100 scale, 0 no injury, 100 complete control
Summary of the method: as §1

[9] = system: duck salad; experiment: Test B flood test duck salad; type: in vivo, Heteranthera limosa
Summary of the method: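 Flood test on plants grown to the 2-leaf stage; treated plants kept in greenhouse twelve to sixteen days, then visually rated against controls on a 0 (no effect) to 10 (complete control) scale.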

[10] = system: cocklebur; experiment: Test B pre/postemergence cocklebur; type: in vivo, Xanthium strumarium
Summary of the method: as §2

[11] = system: pitted morningglory; experiment: Test D pitted morningglory; type: in vivo, Ipomoea lacunosa; conditions: Preemergence, 0 to 100 scale, 0 no injury, 100 complete control
Summary of the method: as §1

[12] = system: velvetleaf; experiment: Test B pre/postemergence velvetleaf; type: in vivo, Abutilon theophrasti
Summary of the method: as §2

[13] = system: winter wheat; experiment: Test E winter wheat; type: in vivo, Triticum aestivum; conditions: Postemergence
Summary of the method: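 Compounds formulated in non-phytotoxic solvent mixture with surfactant; for postemergence, sprayed on plants at 1- to 4-leaf stage grown in 60:40 sandy loam/greenhouse potting mix. Kept in greenhouse ~21 to 28 days, then visually rated against untreated controls.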

[14] = system: wild oat; experiment: Test E wild oat; type: in vivo, Avena fatua; conditions: Preemergence, 0 to 100 scale where 0 is no effect and 100 is complete control
[15] = system: blackgrass; experiment: Test E blackgrass; type: in vivo, Alopecurus myosuroides; conditions: Preemergence
[16] = system: winter barley; experiment: Test E winter barley; type: in vivo, Hordeum vulgare; conditions: Preemergence
[17] = Rate 500 g/ha, 0 to 100 scale where 0 is no effect and 100 is complete control
[18] = Rate 1000 g/ha, 0 to 100 scale where 0 is no effect and 100 is complete control
[19] = Postemergence, Rate 62 g/ha, scale 0 to 10, 0 is no effect, 10 is complete control
[20] = Postemergence, Rate 250 g/ha, scale 0 to 10, 0 no effect, 10 complete control
[21] = Preemergence, Rate 62 g/ha, scale 0 to 10, 0 is no effect, 10 is complete control
[22] = Preemergence, Rate 125 g/ha, scale 0 to 10 (0 no effect, 10 complete control)
[23] = Preemergence, Rate 250 g/ha, scale of 0 to 10 where 0 is no effect and 10 is complete control
[24] = Preemergence, Rate 500 g/ha, scale 0 (no effect) to 10 (complete control)
[25] = Rate 125 g/ha, Postemergence, scale 0 to 10, 0 no effect, 10 complete control

For `Cc1cccc(C)c1-n1c(=O)on(C(=O)N(c2ccc(F)cc2)C(C)C)c1=O` [Compound 18], the “Plant response rating, Green foxtail” value ([1]; Rate 250 g/ha, 0 to 100 scale) was 30, the “Plant response rating, Green foxtail” value [1, 17] was 50 and the “Plant response rating, Green foxtail” value [1, 18] was 70. The “Plant response rating, Tall Mallow” value ([2]; Rate 16 g/ha) was 0, the “Plant response rating, Tall Mallow” value ([2]; Rate 32 g/ha) was 0 and the “Tall Mallow plant response rating” value ([2]; Rate 64 g/ha) was 0. For the same compound, the “Tall Mallow plant response rating” value ([2]; Rate 125 g/ha) was 0, the “Plant response rating, Bermudagrass” value ([3]; Rate 16 g/ha) was 40 and the “Plant response rating, Bermudagrass” value ([3]; Rate 32 g/ha) was 60. The “Plant response rating, Bermudagrass” value ([3]; Rate 64 g/ha) was 85, the “Plant response rating, Bermudagrass” value ([3]; Rate 125 g/ha) was 100 and the “Plant response rating, Wheat (winter)” value ([4]; Rate 250 g/ha, 0 to 100 scale) was 0. For the same compound, the “Plant response rating, Wheat (winter)” value [4, 17] was 10, the “Plant response rating, Wheat (winter)” value [4, 18] was 20 and the “Plant response rating, C. purslane” value ([5]; Rate 16 g/ha) was 0. For the same compound, the “Plant response rating, C. purslane” value ([5]; Rate 32 g/ha) was 0, the “Plant response rating, C. purslane” value ([5]; Rate 64 g/ha) was 0 and the “Plant response rating, C. purslane” value ([5]; Rate 125 g/ha) was 0. The “Soybean plant response rating” value [6, 19] was 2, the “Soybean plant response rating” value [6, 20] was 3 and the “Plant response rating, Soybean” value [6, 21] was 0. For the same compound, the “Plant response rating, Soybean” value [6, 22] was 0, the “Plant response rating, Soybean” value [6, 23] was 0 and the “Soybean plant response rating” value [6, 24] was 0. For the same compound, the “Soybean plant response rating” value [6, 25] was 3, the “Plant response rating, I. Ryegrass” value ([7]; Rate 250 g/ha, 0 to 100 scale) was 40 and the “Plant response rating, I. Ryegrass” value [7, 17] was 60. For the same compound, the “Plant response rating, I. Ryegrass” value [7, 18] was 70, the “Plant response rating, Guineagrass” value ([8]; Rate 16 g/ha) was 0 and the “Plant response rating, Guineagrass” value ([8]; Rate 32 g/ha) was 0. The “Plant response rating, Guineagrass” value ([8]; Rate 64 g/ha) was 30, the “Plant response rating, Guineagrass” value ([8]; Rate 125 g/ha) was 65 and the “Ducksalad plant response rating” value [9, 19] was 0. The “Ducksalad plant response rating” value ([9]; Rate 62 g/ha, headed Pre-emergence (flood test species), scale 0 to 10 (0 no effect, 10 complete control)) was 0, the “Ducksalad plant response rating” value ([9]; Rate 125 g/ha, Postemergence section (flood test species), scale 0 to 10, 0 no effect, 10 complete control) was 7 and the “Ducksalad plant response rating” value ([9]; Rate 125 g/ha, Pre-emergence, flood test species, scale 0 to 10 where 0 is no effect and 10 is complete control) was 0. For the same compound, the “Ducksalad plant response rating” value ([9]; Rate 250 g/ha, headed Pre-emergence (flood test species), scale 0 to 10 (0 no effect, 10 complete control)) was 0, the “Ducksalad plant response rating” value ([9]; Rate 500 g/ha, Postemergence section of Table B, 0 to 10 scale (0 no effect, 10 complete control)) was 7 and the “Plant response rating, Ducksalad” value ([9]; Rate 500 g/ha, headed Pre-emergence (flood test species), scale 0 to 10 (0 no effect, 10 complete control)) was 1. The “Ducksalad plant response rating” value ([9]; Rate 1000 g/ha, Pre-emergence (as headed), scale 0 to 10) was 0, the “Ducksalad plant response rating” value ([9]; Rate 2000 g/ha, Pre-emergence (as headed), scale 0 to 10) was 0 and the “Ducksalad plant response rating” value ([9]; flood test, listed under Postemergence, Rate 250 g/ha, scale 0 to 10, 0 no effect, 10 complete control) was 7. The “Cocklebur plant response rating” value [10, 19] was 0, the “Cocklebur plant response rating” value [10, 20] was 1 and the “Plant response rating, Cocklebur” value [10, 21] was 0. For the same compound, the “Plant response rating, Cocklebur” value [10, 22] was 0, the “Plant response rating, Cocklebur” value [10, 23] was 0 and the “Cocklebur plant response rating” value [10, 24] was 0. For the same compound, the “Cocklebur plant response rating” value [10, 25] was 0, the “Cocklebur plant response rating” value ([10]; Rate 500 g/ha, Postemergence, 0 to 10 scale (0 no effect, 10 complete control)) was 2 and the “Plant response rating, P. morninglory” value ([11]; Rate 16 g/ha) was 0. For the same compound, the “Plant response rating, P. morninglory” value ([11]; Rate 32 g/ha) was 0, the “Plant response rating, P. morninglory” value ([11]; Rate 64 g/ha) was 0 and the “Plant response rating, P. morninglory” value ([11]; Rate 125 g/ha) was 0. For the same compound, the “Velvetleaf plant response rating” value [12, 19] was 0, the “Velvetleaf plant response rating” value [12, 20] was 1 and the “Plant response rating, Velvetleaf” value [12, 21] was 0. The “Plant response rating, Velvetleaf” value [12, 22] was 0, the “Plant response rating, Velvetleaf” value [12, 23] was 0 and the “Velvetleaf plant response rating” value [12, 24] was 0. The “Velvetleaf plant response rating” value [12, 25] was 0, the “Plant response rating, Wheat (winter)” value ([13]; Rate 250 g/ha, 0 to 100 scale (0 no effect, 100 complete control)) was 55 and the “Plant response rating, Wheat (winter)” value ([13]; Rate 500 g/ha, 0 to 100 scale, 0 no effect, 100 complete control) was 65. The “Plant response rating, Wild oat” value ([14]; Rate 500 g/ha) was 40, the “Plant response rating, Wild oat” value ([14]; Rate 1000 g/ha) was 50 and the “Plant response rating, Blackgrass” value ([15]; Rate 250 g/ha, 0 to 100 scale) was 10. For the same compound, the “Plant response rating, Blackgrass” value [15, 17] was 25, the “Plant response rating, Blackgrass” value [15, 18] was 85 and the “Plant response rating, Barley (winter)” value ([16]; Rate 250 g/ha, 0 to 100 scale) was 20. For the same compound, the “Plant response rating, Barley (winter)” value [16, 17] was 30 and the “Plant response rating, Barley (winter)” value [16, 18] was 50.

Reference: patent US6737383B1, “Herbicidal oxadiazolidines” (priority 1999, dated 2004)
